In patent US8404643B2, “Metastin derivatives and use thereof” (priority 2005, dated 2013):
Square brackets hold non-standard residues; d marks the D form. Peptide text beside a SMILES is read from it. * marks the point of attachment. Phe(4-Cl) = N[C@@H](Cc1ccc(Cl)cc1)C(=O)O; Pro(4S-NH2) = N[C@@H]1CN[C@H](C(=O)O)C1; Phe(3-F) = N[C@@H](Cc1cccc(F)c1)C(=O)O; Phe(4-F) = N[C@@H](Cc1ccc(F)cc1)C(=O)O; Phe(2-F) = N[C@@H](Cc1ccccc1F)C(=O)O; Arg(Me) = CNC(=N)NCCC[C@H](N)C(=O)O; His(π-Me) = Cn1cncc1C[C@H](N)C(=O)O; Hyp = O=C(O)[C@@H]1C[C@@H](O)CN1; dNMeF = CN[C@H](Cc1ccccc1)C(=O)O; Orn = NCCC[C@H](N)C(=O)O; Aib = CC(C)(N)C(=O)O; Glycolyl = O=C(CO)*; Bn = c1ccc(C*)cc1; azaGly = NNC(=O)O

Biological target: T1, hOT7T175 (Homo sapiens, UniProt Q969F8)
T1 construct: expressed in transfected cells
Assay: Assay for intracellular Ca ion level-increasing activity using FLIPR
Type: cell-based
Conditions: hOT7T175/CHO cells, relative to Metastin (1-54)
How it was run: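 CHO/dhfr− cells stably transfected with hOT7T175, selected for high metastin response, loaded with Fluo3-AM for 1 h at 37 °C in HANKS/HBSS (pH 7.4) with probenecid. Peptides were diluted from 1×10^−3 M DMSO stock into HANKS/HBSS with 2.5 mM probenecid, 0.2% BSA, 0.1% CHAPS; intracellular Ca rise read by FLIPR.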

T1 sequence (Q969F8 whole entry L364H): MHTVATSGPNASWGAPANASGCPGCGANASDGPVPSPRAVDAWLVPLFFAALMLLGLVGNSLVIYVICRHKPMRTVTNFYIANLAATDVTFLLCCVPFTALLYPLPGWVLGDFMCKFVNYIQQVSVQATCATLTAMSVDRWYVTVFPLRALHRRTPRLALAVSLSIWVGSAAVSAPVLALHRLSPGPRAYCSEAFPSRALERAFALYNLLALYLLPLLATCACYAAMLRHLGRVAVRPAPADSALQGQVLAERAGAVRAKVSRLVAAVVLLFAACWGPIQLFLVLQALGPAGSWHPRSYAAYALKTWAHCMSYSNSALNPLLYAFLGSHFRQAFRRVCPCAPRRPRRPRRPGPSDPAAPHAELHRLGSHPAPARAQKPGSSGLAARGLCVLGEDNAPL

CNC(=N)NCCC[C@H](NC(=O)[C@H](CC(C)C)NC(=O)NNC(=O)[C@H](Cc1ccc(Cl)cc1)NC(=O)[C@@H](NC(=O)[C@H](CC(N)=O)NC(=O)[C@H](Cc1c[nH]c2ccccc12)NC(=O)[C@@H](Cc1ccc(O)cc1)NC(C)=O)[C@@H](C)O)C(=O)N[C@@H](Cc1c[nH]c2ccccc12)C(N)=O [Compound No. 768, Ac-D-Tyr-Trp-Asn-Thr-Phe(4Cl)-AzaGly-Leu-Arg(Me)-Trp-NH2] (Ac-[dY]WNT[Phe(4-Cl)][azaGly]L[Arg(Me)]W-NH2)
Specific Activity: intracellular Ca ion level-increasing activity [specific activity to Metastin (1-54)]: 0.6

CNC(=N)NCCC[C@H](NC(=O)[C@H](CC(C)C)NC(=O)NNC(=O)[C@H](Cc1ccc(Cl)cc1)NC(=O)[C@@H](NC(=O)[C@H](CC(N)=O)NC(=O)CNC(=O)[C@@H](Cc1ccc(O)cc1)NC(C)=O)[C@@H](C)O)C(=O)N[C@@H](Cc1c[nH]c2ccccc12)C(N)=O [Compound No. 769, Ac-D-Tyr-Gly-Asn-Thr-Phe(4Cl)-AzaGly-Leu-Arg(Me)-Trp-NH2] (Ac-[dY]GNT[Phe(4-Cl)][azaGly]L[Arg(Me)]W-NH2)
Specific Activity: intracellular Ca ion level-increasing activity [specific activity to Metastin (1-54)]: 1.5

CNC(=N)NCCC[C@H](NC(=O)[C@H](CC(C)C)NC(=O)NNC(=O)[C@H](Cc1ccc(Cl)cc1)NC(=O)[C@@H](NC(=O)[C@H](CC(N)=O)NC(=O)C(C)(C)NC(=O)[C@@H](Cc1ccc(O)cc1)NC(C)=O)[C@@H](C)O)C(=O)N[C@@H](Cc1c[nH]c2ccccc12)C(N)=O [Compound No. 770, Ac-D-Tyr-Aib-Asn-Thr-Phe(4Cl)-AzaGly-Leu-Arg(Me)-Trp-NH2] (Ac-[dY][Aib]NT[Phe(4-Cl)][azaGly]L[Arg(Me)]W-NH2)
Specific Activity: intracellular Ca ion level-increasing activity [specific activity to Metastin (1-54)]: 2.6

CNC(=N)NCCC[C@H](NC(=O)[C@H](CC(C)C)NC(=O)NNC(=O)[C@H](Cc1ccccc1)NC(=O)[C@@H](NC(=O)[C@H](CC(N)=O)NC(=O)[C@H](CCCN)NC(=O)[C@@H](Cc1ccc(O)cc1)NC(C)=O)[C@@H](C)O)C(=O)N[C@@H](Cc1c[nH]c2ccccc12)C(N)=O [Compound No. 771, Ac-D-Tyr-Orn-Asn-Thr-Phe-AzaGly-Leu-Arg(Me)-Trp-NH2] (Ac-[dY][Orn]NTF[azaGly]L[Arg(Me)]W-NH2)
Specific Activity: intracellular Ca ion level-increasing activity [specific activity to Metastin (1-54)]: 1.9

CNC(=N)NCCC[C@H](NC(=O)[C@H](CC(C)C)NC(=O)NNC(=O)[C@H](Cc1ccccc1)NC(=O)[C@@H](NC(=O)[C@H](CC(N)=O)NC(=O)[C@@H](NC(=O)[C@@H](Cc1ccc(O)cc1)NC(C)=O)[C@@H](C)O)[C@@H](C)O)C(=O)N[C@@H](Cc1c[nH]c2ccccc12)C(N)=O [Compound No. 772, Ac-D-Tyr-Thr-Asn-Thr-Phe-AzaGly-Leu-Arg(Me)-Trp-NH2] (Ac-[dY]TNTF[azaGly]L[Arg(Me)]W-NH2)
Specific Activity: intracellular Ca ion level-increasing activity [specific activity to Metastin (1-54)]: 1.3

CNC(=N)NCCC[C@H](NC(=O)[C@H](CC(C)C)NC(=O)NNC(=O)[C@H](Cc1ccccc1)NC(=O)[C@@H](NC(=O)[C@H](CC(N)=O)NC(=O)[C@H](Cc1cncn1C)NC(=O)[C@@H](Cc1ccc(O)cc1)NC(C)=O)[C@@H](C)O)C(=O)N[C@@H](Cc1c[nH]c2ccccc12)C(N)=O [Compound No. 773, Ac-D-Tyr-His(3Me)-Asn-Thr-Phe-AzaGly-Leu-Arg(Me)-Trp-NH2] (Ac-[dY][His(π-Me)]NTF[azaGly]L[Arg(Me)]W-NH2)
Specific Activity: intracellular Ca ion level-increasing activity [specific activity to Metastin (1-54)]: 1.1

CNC(=N)NCCC[C@H](NC(=O)[C@H](CC(C)C)NC(=O)NNC(=O)[C@H](Cc1ccccc1)NC(=O)[C@@H](NC(=O)[C@H](CC(N)=O)NC(=O)[C@@H]1C[C@@H](O)CN1C(=O)[C@@H](Cc1ccc(O)cc1)NC(=O)CO)[C@@H](C)O)C(=O)N[C@@H](Cc1c[nH]c2ccccc12)C(N)=O [Compound No. 776, Glycoloyl-D-Tyr-Hyp-Asn-Thr-Phe-AzaGly-Leu-Arg(Me)-Trp-NH2] (Glycolyl-[dY][Hyp]NTF[azaGly]L[Arg(Me)]W-NH2)
Specific Activity: intracellular Ca ion level-increasing activity [specific activity to Metastin (1-54)]: 1.5

CNC(=N)NCCC[C@H](NC(=O)[C@H](CC(C)C)NC(=O)NNC(=O)[C@H](Cc1ccccc1)NC(=O)[C@@H](NC(=O)[C@H](CC(N)=O)NC(=O)[C@@H](Cc1ccc(O)cc1)NC(C)=O)[C@@H](C)O)C(=O)N[C@@H](Cc1c[nH]c2ccccc12)C(N)=O [Compound No. 777, Ac-D-Tyr-Asn-Thr-Phe-AzaGly-Leu-Arg(Me)-Trp-NH2] (Ac-[dY]NTF[azaGly]L[Arg(Me)]W-NH2)
Specific Activity: intracellular Ca ion level-increasing activity [specific activity to Metastin (1-54)]: 1.8

CNC(=N)NCCC[C@H](NC(=O)[C@H](CC(C)C)NC(=O)NNC(=O)[C@H](Cc1ccccc1)NC(=O)[C@@H](NC(=O)[C@H](CC(N)=O)NC(=O)[C@@H]1C[C@H](N)CN1C(=O)[C@@H](Cc1ccc(O)cc1)NC(C)=O)[C@@H](C)O)C(=O)N[C@@H](Cc1c[nH]c2ccccc12)C(N)=O [Compound No. 780, Ac-D-Tyr-Pro(4NH2)-Asn-Thr-Phe-AzaGly-Leu-Arg(Me)-Trp-NH2] (Ac-[dY][Pro(4S-NH2)]NTF[azaGly]L[Arg(Me)]W-NH2)
Specific Activity: intracellular Ca ion level-increasing activity [specific activity to Metastin (1-54)]: 2.1

CNC(=N)NCCC[C@H](NC(=O)[C@H](CC(C)C)NC(=O)NNC(=O)[C@H](Cc1ccccc1)NC(=O)[C@@H](NC(=O)[C@H](CC(N)=O)NC(=O)[C@@H]1C[C@@H](OCc2ccccc2)CN1C(=O)[C@@H](Cc1ccc(O)cc1)NC(C)=O)[C@@H](C)O)C(=O)N[C@@H](Cc1c[nH]c2ccccc12)C(N)=O [Compound No. 781, Ac-D-Tyr-Hyp(Bzl)-Asn-Thr-Phe-AzaGly-Leu-Arg(Me)-Trp-NH2] (Ac-[dY][Hyp](Bn)NTF[azaGly]L[Arg(Me)]W-NH2)
Specific Activity: intracellular Ca ion level-increasing activity [specific activity to Metastin (1-54)]: 1.0

CNC(=N)NCCC[C@H](NC(=O)[C@H](CC(C)C)NC(=O)NNC(=O)[C@H](Cc1ccccc1)NC(=O)[C@@H](NC(=O)[C@H](CC(N)=O)NC(=O)[C@@H](Cc1ccccc1)N(C)C(=O)[C@@H](Cc1ccc(O)cc1)NC(C)=O)[C@@H](C)O)C(=O)N[C@@H](Cc1c[nH]c2ccccc12)C(N)=O [Compound No. 782, Ac-D-Tyr-D-NMePhe-Asn-Thr-Phe-AzaGly-Leu-Arg(Me)-Trp-NH2] (Ac-[dY][dNMeF]NTF[azaGly]L[Arg(Me)]W-NH2)
Specific Activity: intracellular Ca ion level-increasing activity [specific activity to Metastin (1-54)]: 1.8

CNC(=N)NCCC[C@H](NC(=O)[C@H](CC(C)C)NC(=O)NNC(=O)[C@H](Cc1ccccc1F)NC(=O)[C@@H](NC(=O)[C@H](CC(N)=O)NC(=O)CNC(=O)[C@@H](Cc1ccc(O)cc1)NC(C)=O)[C@@H](C)O)C(=O)N[C@@H](Cc1c[nH]c2ccccc12)C(N)=O [Compound No. 783, Ac-D-Tyr-Gly-Asn-Thr-Phe(2F)-AzaGly-Leu-Arg(Me)-Trp-NH2] (Ac-[dY]GNT[Phe(2-F)][azaGly]L[Arg(Me)]W-NH2)
Specific Activity: intracellular Ca ion level-increasing activity [specific activity to Metastin (1-54)]: 8.8

CNC(=N)NCCC[C@H](NC(=O)[C@H](CC(C)C)NC(=O)NNC(=O)[C@H](Cc1ccccc1F)NC(=O)[C@@H](NC(=O)[C@H](CC(N)=O)NC(=O)C(C)(C)NC(=O)[C@@H](Cc1ccc(O)cc1)NC(C)=O)[C@@H](C)O)C(=O)N[C@@H](Cc1c[nH]c2ccccc12)C(N)=O [Compound No. 784, Ac-D-Tyr-Aib-Asn-Thr-Phe(2F)-AzaGly-Leu-Arg(Me)-Trp-NH2] (Ac-[dY][Aib]NT[Phe(2-F)][azaGly]L[Arg(Me)]W-NH2)
Specific Activity: intracellular Ca ion level-increasing activity [specific activity to Metastin (1-54)]: 3.4

CNC(=N)NCCC[C@H](NC(=O)[C@H](CC(C)C)NC(=O)NNC(=O)[C@H](Cc1cccc(F)c1)NC(=O)[C@@H](NC(=O)[C@H](CC(N)=O)NC(=O)CNC(=O)[C@@H](Cc1ccc(O)cc1)NC(C)=O)[C@@H](C)O)C(=O)N[C@@H](Cc1c[nH]c2ccccc12)C(N)=O [Compound No. 785, Ac-D-Tyr-Gly-Asn-Thr-Phe(3F)-AzaGly-Leu-Arg(Me)-Trp-NH2] (Ac-[dY]GNT[Phe(3-F)][azaGly]L[Arg(Me)]W-NH2)
Specific Activity: intracellular Ca ion level-increasing activity [specific activity to Metastin (1-54)]: 3.2

CNC(=N)NCCC[C@H](NC(=O)[C@H](CC(C)C)NC(=O)NNC(=O)[C@H](Cc1cccc(F)c1)NC(=O)[C@@H](NC(=O)[C@H](CC(N)=O)NC(=O)C(C)(C)NC(=O)[C@@H](Cc1ccc(O)cc1)NC(C)=O)[C@@H](C)O)C(=O)N[C@@H](Cc1c[nH]c2ccccc12)C(N)=O [Compound No. 786, Ac-D-Tyr-Aib-Asn-Thr-Phe(3F)-AzaGly-Leu-Arg(Me)-Trp-NH2] (Ac-[dY][Aib]NT[Phe(3-F)][azaGly]L[Arg(Me)]W-NH2)
Specific Activity: intracellular Ca ion level-increasing activity [specific activity to Metastin (1-54)]: 3.3

CNC(=N)NCCC[C@H](NC(=O)[C@H](CC(C)C)NC(=O)NNC(=O)[C@H](Cc1ccc(F)cc1)NC(=O)[C@@H](NC(=O)[C@H](CC(N)=O)NC(=O)[C@@H]1C[C@@H](O)CN1C(=O)[C@@H](Cc1ccc(O)cc1)NC(C)=O)[C@@H](C)O)C(=O)N[C@@H](Cc1c[nH]c2ccccc12)C(N)=O [Compound No. 787, Ac-D-Tyr-Hyp-Asn-Thr-Phe(4F)-AzaGly-Leu-Arg(Me)-Trp-NH2] (Ac-[dY][Hyp]NT[Phe(4-F)][azaGly]L[Arg(Me)]W-NH2)
Specific Activity: intracellular Ca ion level-increasing activity [specific activity to Metastin (1-54)]: 2.3

CNC(=N)NCCC[C@H](NC(=O)[C@H](CC(C)C)NC(=O)NNC(=O)[C@H](Cc1ccc(F)cc1)NC(=O)[C@@H](NC(=O)[C@H](CC(N)=O)NC(=O)[C@H](CCC(=O)O)NC(=O)[C@@H](Cc1ccc(O)cc1)NC(C)=O)[C@@H](C)O)C(=O)N[C@@H](Cc1c[nH]c2ccccc12)C(N)=O [Compound No. 788, Ac-D-Tyr-Glu-Asn-Thr-Phe(4F)-AzaGly-Leu-Arg(Me)-Trp-NH2] (Ac-[dY]ENT[Phe(4-F)][azaGly]L[Arg(Me)]W-NH2)
Specific Activity: intracellular Ca ion level-increasing activity [specific activity to Metastin (1-54)]: 2.7
